This passage reports IC50 results from patent US20260035376A1, “COMPOSITIONS AND METHODS FOR INHIBITION OF RAS” (TheRas, Inc., priority 2022, published 2026).

Assay [1] concerns the target T1, Avi-KRAS WT (1-169) GppNHp/RAF1 RBD-3×FLAG (52-151) (Homo sapiens, UniProt P01116).
T1 construct: 50 nM Avi-KRAS WT (1-169) GppNHp/RAF1 RBD-3×FLAG (52-151)
Put plainly: Disrupting RAS-effector binding HTRF assay, Raf1 RBD-KRAS WT-GppNHp. The following applies: PPI HTRF, 50 nM Avi-KRAS WT GppNHp, compound titration 30-0.0045 μM; read-out: Raf1 RBD-KRAS WT-GppNHp disruption. The protocol:
(§1) A protein:protein interaction (PPI) Homogeneous Time Resolved Fluorescence (HTRF) assay was used to determine the effectiveness of compounds of the present disclosure in disrupting KRAS protein and effector RAF1 binding.
(§2) The HTRF assay used the following reagents and proteins: (i) 50 nM Avi-KRAS G12D (1-169) GppNHp/RAF1 RBD-3×FLAG (52-151); (ii) 50 nM Avi-KRAS G12R (1-169) GppNHp/RAF1 RBD-3×FLAG (52-151); (iii) 50 nM Avi-KRAS G12V (1-169) GppNHp/RAF1 RBD-3×FLAG (52-151), (iv) 50 nM Avi-KRAS WT (1-169) GppNHp/RAF1 RBD-3×FLAG (52-151); and (v) 75 nM Avi-RAF1 RBD-3×FLAG. The assay buffer included: 50 mM Tris pH 7.5, 100 mM NaCl, 5 mM MgCl2, 0.1% BSA, […], 10% DMSO. The bead buffer included: 50 mM Tris pH 7.5, 0.01% o Tween 20. Assay volume of 20 μL was used in a 384 well plate-low volume format. Compound titration: 30-0.0045 μM, 3× dilution series.
(§3) The HTRF assay employed the following protocol:
(§4) Compounds were dispensed in assay plate (384-well, Grenier Bione #784075) using Echo (model 555) with dose response settings: 200 nL final volume, titration from 30 μM as a 10-point dilution series. Protein mix was prepared in assay buffer, and dispensed on plates, 10 μL per well, then incubated for 1 h at room temperature, with 700 rpm shaking. Reagents mix was prepared and dispensed on plates, 10 μL per well, then incubated for 1 h at room temperature, with 700 rpm shaking.
(§5) Plates were analyzed on an Envision plate reader using the following setting: Excitation 320 nm, Bandwidth 75 nM; Emission 615 nm, Bandwidth 85 nM, Gain 100%, Flashes 100, Lag 60 μs. Data were reported as percentage of activity, with DMSO as 100%. Data were plotted and analyzed using Prism 8.
(§6) The biochemical Raf1-KRAS G12D/G12R/G12V/WT-GppNHP disruption assay IC50 of selected compounds described herein are shown in Table 4.
On the technique in general: In TR-FRET formats the signal depends on donor and acceptor labels being close together.

In assay [2] the test system is KRAS G12D protein/effector signaling in GP2d cells. Put plainly: Cell-based pERK HTRF assay in GP2d cell. The conditions noted are these: 60 min incubation. The procedure:
A pERK assay (Perkin Elmer) was used to determine the effectiveness of compounds in disrupting KRAS G12D protein/effector signaling in cells.
On Day 1, cells (GP2d) were seeded into 96-well plates at 3×10^4 cells/well in 80 μL complete growth media (DMEM, 10% FBS).
On Day 2, cells were treated with compounds at 0.25% DMSO. The source plate was created with compounds diluted in media at 5-fold the final assay concentration. The compounds were run in a 9-point concentration curve starting at […], with a half-log dilution between concentrations. 20 μL was transferred onto the cell plates (final volume in wells was 100 μL). Plates were harvested after 60 min incubation by aspirating media and adding kit-supplied 1× supplemented lysis buffer to all wells (50 μL per well). Plates were then placed on a plate shaker and incubated at 850 rpm for an additional 30 min.
Antibody mixture solution was prepared by diluting aliquoted d2 and Eu Cryptate antibodies 1:20 in kit supplied detection buffer, and mixing the diluted antibodies solutions (1:1 v:v). 4 μL of this solution was then added to a 384-well detection plate (Perkin Elmer; 6008230).
Samples were homogenized by pipetting up and down and then transferred (16 μL of cell lysates) from the 96-well cell culture plate to two wells of the HTRF 384-well detection plate containing the antibody solution. Plates were centrifuged (524 g for 1 min) and allowed to incubate between 4 and 24 h at room temperature. Maximum signal was reached after 4 h incubation time and remained stable over a period of 24 hours. Therefore, readings could be made between 4 and 24 h of incubation. Plates were centrifuged again (524 g for 1 min), then analyzed on the EnVision plate reader using the following settings: Excitation 320 nm, Bandwidth 75 nm; Emission 615 nm, Bandwidth 85 nm; Gain 100%; Flashes 100; Lag 60 μs.

Assay [3] deals with T2, Avi-KRAS G12R (1-169) GppNHp/RAF1 RBD-3×FLAG (52-151) (Homo sapiens, UniProt P01116, G12R).
T2 construct: 50 nM Avi-KRAS G12R (1-169) GppNHp/RAF1 RBD-3×FLAG (52-151)
T2 sequence (P01116 1-169 isoform P01116-2 G12R limits assumed): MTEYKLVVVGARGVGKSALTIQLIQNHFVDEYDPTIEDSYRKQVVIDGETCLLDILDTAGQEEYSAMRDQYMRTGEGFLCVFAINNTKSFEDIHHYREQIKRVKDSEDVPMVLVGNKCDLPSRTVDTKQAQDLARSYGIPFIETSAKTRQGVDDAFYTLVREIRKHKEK
The assay is described as follows: Disrupting RAS-effector binding HTRF assay, Raf1 RBD-KRAS G12R-GppNHp. The following applies: PPI HTRF, 50 nM Avi-KRAS G12R GppNHp, compound titration 30-0.0045 μM; read-out: Raf1 RBD-KRAS G12R-GppNHp disruption. The protocol: as §1, §2, §3, §4, §5, §6

Assay [4] deals with T3, Avi-KRAS G12D (1-169) GppNHp/RAF1 RBD-3×FLAG (52-151) (Homo sapiens, UniProt P01116, G12D).
T3 construct: 50 nM Avi-KRAS G12D (1-169) GppNHp/RAF1 RBD-3×FLAG (52-151)
T3 sequence (P01116 1-169 isoform P01116-2 G12D limits assumed): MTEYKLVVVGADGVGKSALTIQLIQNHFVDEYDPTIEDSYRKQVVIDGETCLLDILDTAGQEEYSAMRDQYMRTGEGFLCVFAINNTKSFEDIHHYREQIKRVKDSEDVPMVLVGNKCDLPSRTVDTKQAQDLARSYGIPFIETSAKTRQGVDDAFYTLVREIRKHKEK
Put plainly: Disrupting RAS-effector binding HTRF assay, Raf1 RBD-KRAS G12D-GppNHp. The conditions noted are these: PPI HTRF, 50 nM Avi-KRAS G12D GppNHp, compound titration 30-0.0045 μM; read-out: Raf1 RBD-KRAS G12D-GppNHp disruption. The procedure: as §1, §2, §3, §4, §5, §6

Assay [5] has as its target T4, Avi-KRAS G12V (1-169) GppNHp/RAF1 RBD-3×FLAG (52-151) (Homo sapiens, UniProt P01116, G12V).
T4 construct: 50 nM Avi-KRAS G12V (1-169) GppNHp/RAF1 RBD-3×FLAG (52-151)
The assay is described as follows: Disrupting RAS-effector binding HTRF assay, Raf1 RBD-KRAS G12V-GppNHp. The conditions noted are these: PPI HTRF, 50 nM Avi-KRAS G12V GppNHp, compound titration 30-0.0045 μM; read-out: Raf1 RBD-KRAS G12V-GppNHp disruption. The protocol: as §1, §2, §3, §4, §5, §6

T1 sequence (P01116 1-169 isoform P01116-2 limits assumed): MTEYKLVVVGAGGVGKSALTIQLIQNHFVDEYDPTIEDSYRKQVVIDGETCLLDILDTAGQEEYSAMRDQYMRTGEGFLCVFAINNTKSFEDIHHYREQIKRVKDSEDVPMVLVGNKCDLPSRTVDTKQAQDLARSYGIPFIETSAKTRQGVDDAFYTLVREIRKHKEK
T4 sequence (P01116 1-169 isoform P01116-2 G12V limits assumed): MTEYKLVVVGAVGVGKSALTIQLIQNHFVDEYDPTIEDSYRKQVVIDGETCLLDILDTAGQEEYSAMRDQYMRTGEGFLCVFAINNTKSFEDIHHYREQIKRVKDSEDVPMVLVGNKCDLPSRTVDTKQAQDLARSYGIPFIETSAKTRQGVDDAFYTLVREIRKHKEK

In the case of `COc1nc(N2CC3CCC(C2)N3)c2cc(C(F)(F)F)c(-c3ccc(F)c4sc(N)c(C#N)c34)c(F)c2n1` [Compound 1], the IC50 in assay [1] is 1 to 10 µM; in assay [2] (1 h) it was ≤ 0.1 µM; in assay [3], > 10 µM; in assay [4], 1 to 10 µM; in assay [5] it was > 10 µM.
In the case of `N#Cc1c(N)sc2c(F)ccc(-c3c(C(F)(F)F)cc4c(N5CC6CCC(C5)N6)nc(OCC5CCCCC5)nc4c3F)c12` [Compound 2], the IC50 in assay [1], in assay [3], in assay [4] and in assay [5] was > 10 µM each time.
As for `CCCOc1nc(N2CC3CCC(C2)N3)c2cc(C(F)(F)F)c(-c3ccc(F)c4sc(N)c(C#N)c34)c(F)c2n1` [Compound 3], the IC50 in assay [1] is 1 to 10 µM; in assay [2] (1 h), 0.1 to 1 µM; in assay [3], > 10 µM; in assay [4], 1 to 10 µM; in assay [5] it was > 10 µM.
Consider `N#Cc1c(N)sc2c(F)ccc(-c3c(C(F)(F)F)cc4c(N5CC6CCC(C5)N6)nc(N5CC[C@H](O)C5)nc4c3F)c12` [Compound 4], for which the IC50 in assay [1] is 1 to 10 µM; in assay [2] (1 h), 0.1 to 1 µM; in assay [3] it was > 10 µM; in assay [4] it was 1 to 10 µM; in assay [5], > 10 µM.
Consider `N#Cc1c(N)sc2c(F)ccc(-c3c(C(F)(F)F)cc4c(N5C[C@H]6CC[C@@H](C5)N6)ncnc4c3F)c12` [Compound 5, 4-(4-((1R,5S)-3,8-diazabicyclo[3.2.1]octan-3-yl)-8-fluoro-6-(trifluoromethyl)quinazolin-7-yl)-2-amino-7-fluorobenzo[b]thiophene-3-carbonitrile], for which the IC50 in assay [1] is 1 to 10 µM; in assay [2] (1 h), ≤ 0.1 µM; in assay [3] it was > 10 µM; in assay [4], 1 to 10 µM; in assay [5], > 10 µM.
In the case of `N#Cc1c(N)sc2c(F)ccc(-c3c(C(F)(F)F)cc4c(N5CC6CCC(C5)N6)nc(N5CC[C@@H](O)C5)nc4c3F)c12` [Compound 6], the IC50 is 1 to 10 µM in assay [1]; 0.1 to 1 µM in assay [2] (1 h); > 10 µM in assay [3]; 1 to 10 µM in assay [4]; > 10 µM in assay [5].
Consider `N#Cc1c(N)sc2c(F)ccc(-c3c(C(F)(F)F)cc4c(N5CC6CCC(C5)N6)nc(OCC5(O)CC5)nc4c3F)c12` [Compound 7], for which the IC50 is > 10 µM in assay [1]; 0.1 to 1 µM in assay [2] (1 h); > 10 µM in assay [3]; 1 to 10 µM in assay [4]; > 10 µM in assay [5].
With `CC(C)Oc1nc(N2CC3CCC(C2)N3)c2cc(C(F)(F)F)c(-c3ccc(F)c4sc(N)c(C#N)c34)c(F)c2n1` [Compound 8], the IC50 in assay [1] was 1 to 10 µM; in assay [2] (1 h), 0.1 to 1 µM; in assay [3] it was > 10 µM; in assay [4], 1 to 10 µM; in assay [5], > 10 µM.
`CNc1nc(N2CC3CCC(C2)N3)c2cc(C(F)(F)F)c(-c3ccc(F)c4sc(N)c(C#N)c34)c(F)c2n1` [Compound 9]: the IC50 in assay [1] is 1 to 10 µM; in assay [2] (1 h) it was 0.1 to 1 µM; in assay [3] it was > 10 µM; in assay [4], 1 to 10 µM; in assay [5] it was > 10 µM.
For `CN(C)c1nc(N2C[C@H]3CC[C@@H](C2)N3)c2cc(C(F)(F)F)c(-c3ccc(F)c4sc(N)c(C#N)c34)c(F)c2n1` [Compound 10, 4-(4-((1R,5S)-3,8-diazabicyclo[3.2.1]octan-3-yl)-2-(dimethylamino)-8-fluoro-6-(trifluoromethyl)quinazolin-7-yl)-2-amino-7-fluorobenzo[b]thiophene-3-carbonitrile], the IC50 is > 10 µM in assay [1]; > 1 µM in assay [2] (1 h); > 10 µM in assay [3]; 1 to 10 µM in assay [4]; > 10 µM in assay [5].
Turning to `N#Cc1c(N)sc2c(F)ccc(-c3c(C(F)(F)F)cc4c(N5CC6CCC(C5)N6)nc(OC5CC(O)C5)nc4c3F)c12` (stereo not drawn) [Compound 11], the IC50 is > 10 µM in assay [1]; 0.1 to 1 µM in assay [2] (1 h); > 10 µM in assay [3]; 1 to 10 µM in assay [4]; > 10 µM in assay [5].
Take `N#Cc1c(N)sc2c(F)ccc(-c3c(C(F)(F)F)cc4c(N5CC6CCC(C5)N6)nc(OC5CC(O)C5)nc4c3F)c12` (stereo not drawn) [Compound 12]: the IC50 in assay [1] was 1 to 10 µM; in assay [2], 0.1 to 1 µM; in assay [3] it was > 10 µM; in assay [4], 1 to 10 µM; in assay [5], > 10 µM.
Turning to `N#Cc1c(N)sc2c(F)ccc(-c3c(C(F)(F)F)cc4c(N5CC6CCC(C5)N6)nc(OCCc5ccccc5)nc4c3F)c12` [Compound 13], the IC50 in assay [1] is > 10 µM; in assay [2] (1 h), 0.1 to 1 µM; in assay [3], > 10 µM; in assay [4], 1 to 10 µM; in assay [5] it was > 10 µM.
Turning to `N#Cc1c(N)sc2c(F)ccc(-c3c(C(F)(F)F)cc4c(N5CC6CCC(C5)N6)nc(N5CCC5)nc4c3F)c12` [Compound 14], the IC50 in assay [1] is 1 to 10 µM; in assay [2] (1 h) it was 0.1 to 1 µM; in assay [3], > 10 µM; in assay [4], 1 to 10 µM; in assay [5], > 10 µM.
For the compound `COCCOc1nc(N2CC3CCC(C2)N3)c2cc(C(F)(F)F)c(-c3ccc(F)c4sc(N)c(C#N)c34)c(F)c2n1` [Compound 15], the IC50 in assay [1] was 1 to 10 µM; in assay [2] (1 h), ≤ 0.1 µM; in assay [3] it was > 10 µM; in assay [4], 1 to 10 µM; in assay [5], > 10 µM.
As to `N#Cc1c(N)sc2c(F)ccc(-c3c(C(F)(F)F)cc4c(N5CC6CCC(C5)N6)nc(N5CC(O)C5)nc4c3F)c12` [Compound 16], the IC50 was 1 to 10 µM in assay [1]; 0.1 to 1 µM in assay [2] (1 h); > 10 µM in assay [3]; 1 to 10 µM in assay [4]; > 10 µM in assay [5].
On to `N#Cc1c(N)sc2c(F)ccc(-c3c(C(F)(F)F)cc4c(N5CC6CCC(C5)N6)nc(OC5CCC5)nc4c3F)c12` [Compound 17], for which the IC50 in assay [1] was 1 to 10 µM; in assay [2] (1 h), 0.1 to 1 µM; in assay [3] it was > 10 µM; in assay [4] it was 1 to 10 µM; in assay [5], > 10 µM.
